Columns and labels:
[1] = n-octanol-PBS partition coefficient, logP of the compound; type: physicochemical
Plasma = experiment: Metabolic stability in mouse plasma after 2 hrs by radio-HPLC analysis; type: ADME, cell-free
[2] = Chemical stability in PBS after 2 hrs by radio-HPLC analysis at room temperature; type: physicochemical; conditions: buffer
[3] = Chemical stability in PBS after 2 hrs by radio-HPLC analysis at 60 degC; type: physicochemical; conditions: buffer
Heart [4] = experiment: Biodistribution in S180 tumor-bearing mouse heart at 8 to 10 uCi, iv after 5 mins by gamma counting; type: ADME, organism-based; conditions: in vivo
Liver [5] = experiment: Biodistribution in S180 tumor-bearing mouse liver at 8 to 10 uCi, iv after 5 mins by gamma counting; type: ADME, organism-based; conditions: in vivo
Spleen [6] = experiment: Biodistribution in S180 tumor-bearing mouse spleen at 8 to 10 uCi, iv after 5 mins by gamma counting; type: ADME, organism-based; conditions: in vivo
Lung [7] = experiment: Biodistribution in S180 tumor-bearing mouse lungs at 8 to 10 uCi, iv after 5 mins by gamma counting; type: ADME, organism-based; conditions: in vivo
Kidney [8] = experiment: Biodistribution in S180 tumor-bearing mouse kidneys at 8 to 10 uCi, iv after 5 mins by gamma counting; type: ADME, organism-based; conditions: in vivo
Stomach [9] = experiment: Biodistribution in S180 tumor-bearing mouse stomach at 8 to 10 uCi, iv after 5 mins by gamma counting; type: ADME, organism-based; conditions: in vivo
Muscle tissue [10] = experiment: Biodistribution in S180 tumor-bearing mouse muscle at 8 to 10 uCi, iv after 5 mins by gamma counting; type: ADME, organism-based; conditions: in vivo
Brain [11] = experiment: Biodistribution in S180 tumor-bearing mouse brain at 8 to 10 uCi, iv after 5 mins by gamma counting; type: ADME, organism-based; conditions: in vivo
Mus musculus [12] = experiment: Biodistribution in S180 cells xenografted in mouse tumor at 8 to 10 uCi, iv after 5 mins by gamma counting; type: ADME, organism-based, Neoplasm, CCRF S-180; conditions: in vivo
Blood [13] = experiment: Biodistribution in S180 tumor-bearing mouse blood at 8 to 10 uCi, iv after 5 mins by gamma counting; type: ADME, organism-based; conditions: in vivo
Nucleic Acid [14] = experiment: Ratio of drug level in tumor to muscle in S180 tumor-bearing mouse at 8 to 10 uCi, iv at 5 mins by gamma counting; type: ADME, organism-based; conditions: in vivo
Nucleic Acid [15] = experiment: Ratio of drug level in tumor to blood in S180 tumor-bearing mouse at 8 to 10 uCi, iv at 5 mins by gamma counting; type: ADME, organism-based; conditions: tumour
Nucleic Acid [16] = experiment: Ratio of drug level in tumor to brain in S180 tumor-bearing mouse at 8 to 10 uCi, iv at 5 mins by gamma counting; type: ADME, organism-based; conditions: in vivo
Heart [17] = experiment: Biodistribution in S180 tumor-bearing mouse heart at 8 to 10 uCi, iv after 30 mins by gamma counting; type: ADME, organism-based; conditions: in vivo, 0.5 h
Liver [18] = experiment: Biodistribution in S180 tumor-bearing mouse liver at 8 to 10 uCi, iv after 30 mins by gamma counting; type: ADME, organism-based; conditions: in vivo, 0.5 h
Spleen [19] = experiment: Biodistribution in S180 tumor-bearing mouse spleen at 8 to 10 uCi, iv after 30 mins by gamma counting; type: ADME, organism-based; conditions: in vivo, 0.5 h
Lung [20] = experiment: Biodistribution in S180 tumor-bearing mouse lung at 8 to 10 uCi, iv after 30 mins by gamma counting; type: ADME, organism-based; conditions: in vivo, 0.5 h
Kidney [21] = experiment: Biodistribution in S180 tumor-bearing mouse kidney at 8 to 10 uCi, iv after 30 mins by gamma counting; type: ADME, organism-based; conditions: in vivo, 0.5 h
Stomach [22] = experiment: Biodistribution in S180 tumor-bearing mouse stomach at 8 to 10 uCi, iv after 30 mins by gamma counting; type: ADME, organism-based; conditions: in vivo, 0.5 h
Muscle tissue [23] = experiment: Biodistribution in S180 tumor-bearing mouse muscle at 8 to 10 uCi, iv after 30 mins by gamma counting; type: ADME, organism-based; conditions: in vivo, 0.5 h
Brain [24] = experiment: Biodistribution in S180 tumor-bearing mouse brain at 8 to 10 uCi, iv after 30 mins by gamma counting; type: ADME, organism-based; conditions: in vivo, 0.5 h
Mus musculus [25] = experiment: Biodistribution in S180 cells xenografted in mouse tumor at 8 to 10 uCi, iv after 30 mins by gamma counting; type: ADME, organism-based, Neoplasm, CCRF S-180; conditions: in vivo, 0.5 h
Blood [26] = experiment: Biodistribution in S180 tumor-bearing mouse blood at 8 to 10 uCi, iv after 30 mins by gamma counting; type: ADME, organism-based; conditions: in vivo, 0.5 h
Nucleic Acid [27] = experiment: Ratio of drug level in tumor to muscle in S180 tumor-bearing mouse at 8 to 10 uCi, iv at 30 mins by gamma counting; type: ADME, organism-based; conditions: in vivo, 0.5 h
Nucleic Acid [28] = experiment: Ratio of drug level in tumor to blood in S180 tumor-bearing mouse at 8 to 10 uCi, iv at 30 mins by gamma counting; type: ADME, organism-based; conditions: tumour, 0.5 h
Nucleic Acid [29] = experiment: Ratio of drug level in tumor to brain in S180 tumor-bearing mouse at 8 to 10 uCi, iv at 30 mins by gamma counting; type: ADME, organism-based; conditions: in vivo, 0.5 h
Heart [30] = experiment: Biodistribution in S180 tumor-bearing mouse heart at 8 to 10 uCi, iv after 60 mins by gamma counting; type: ADME, organism-based; conditions: in vivo, 1 h
Liver [31] = experiment: Biodistribution in S180 tumor-bearing mouse liver at 8 to 10 uCi, iv after 60 mins by gamma counting; type: ADME, organism-based; conditions: in vivo, 1 h
Spleen [32] = experiment: Biodistribution in S180 tumor-bearing mouse spleen at 8 to 10 uCi, iv after 60 mins by gamma counting; type: ADME, organism-based; conditions: in vivo, 1 h
Lung [33] = experiment: Biodistribution in S180 tumor-bearing mouse lung at 8 to 10 uCi, iv after 60 mins by gamma counting; type: ADME, organism-based; conditions: in vivo, 1 h
Kidney [34] = experiment: Biodistribution in S180 tumor-bearing mouse kidney at 8 to 10 uCi, iv after 60 mins by gamma counting; type: ADME, organism-based; conditions: in vivo, 1 h
Stomach [35] = experiment: Biodistribution in S180 tumor-bearing mouse stomach at 8 to 10 uCi, iv after 60 mins by gamma counting; type: ADME, organism-based; conditions: in vivo, 1 h
Muscle tissue [36] = experiment: Biodistribution in S180 tumor-bearing mouse muscle at 8 to 10 uCi, iv after 60 mins by gamma counting; type: ADME, organism-based; conditions: in vivo, 1 h
Brain [37] = experiment: Biodistribution in S180 tumor-bearing mouse brain at 8 to 10 uCi, iv after 60 mins by gamma counting; type: ADME, organism-based; conditions: in vivo, 1 h
Mus musculus [38] = experiment: Biodistribution in S180 cells xenografted in mouse tumor at 8 to 10 uCi, iv after 60 mins by gamma counting; type: ADME, organism-based, Neoplasm, CCRF S-180; conditions: in vivo, 1 h
Blood [39] = experiment: Biodistribution in S180 tumor-bearing mouse blood at 8 to 10 uCi, iv after 60 mins by gamma counting; type: ADME, organism-based; conditions: in vivo, 1 h
Nucleic Acid [40] = experiment: Ratio of drug level in tumor to muscle in S180 tumor-bearing mouse at 8 to 10 uCi, iv at 60 mins by gamma counting; type: ADME, organism-based; conditions: in vivo, 1 h
Nucleic Acid [41] = experiment: Ratio of drug level in tumor to blood in S180 tumor-bearing mouse at 8 to 10 uCi, iv at 60 mins by gamma counting; type: ADME, organism-based; conditions: tumour, 1 h
Nucleic Acid [42] = experiment: Ratio of drug level in tumor to brain in S180 tumor-bearing mouse at 8 to 10 uCi, iv at 60 mins by gamma counting; type: ADME, organism-based; conditions: in vivo, 1 h
Heart [43] = experiment: Biodistribution in S180 tumor-bearing mouse heart at 8 to 10 uCi, iv after 120 mins by gamma counting; type: ADME, organism-based; conditions: in vivo, 2 h
Liver [44] = experiment: Biodistribution in S180 tumor-bearing mouse liver at 8 to 10 uCi, iv after 120 mins by gamma counting; type: ADME, organism-based; conditions: in vivo, 2 h
Spleen [45] = experiment: Biodistribution in S180 tumor-bearing mouse spleen at 8 to 10 uCi, iv after 120 mins by gamma counting; type: ADME, organism-based; conditions: in vivo, 2 h
Lung [46] = experiment: Biodistribution in S180 tumor-bearing mouse lung at 8 to 10 uCi, iv after 120 mins by gamma counting; type: ADME, organism-based; conditions: in vivo, 2 h
Kidney [47] = experiment: Biodistribution in S180 tumor-bearing mouse kidney at 8 to 10 uCi, iv after 120 mins by gamma counting; type: ADME, organism-based; conditions: in vivo, 2 h
Stomach [48] = experiment: Biodistribution in S180 tumor-bearing mouse stomach at 8 to 10 uCi, iv after 120 mins by gamma counting; type: ADME, organism-based; conditions: in vivo, 2 h
Muscle tissue [49] = experiment: Biodistribution in S180 tumor-bearing mouse muscle at 8 to 10 uCi, iv after 120 mins by gamma counting; type: ADME, organism-based; conditions: in vivo, 2 h
Brain [50] = experiment: Biodistribution in S180 tumor-bearing mouse brain at 8 to 10 uCi, iv after 120 mins by gamma counting; type: ADME, organism-based; conditions: in vivo, 2 h
Mus musculus [51] = experiment: Biodistribution in S180 cells xenografted in mouse tumor at 8 to 10 uCi, iv after 120 mins by gamma counting; type: ADME, organism-based, Neoplasm, CCRF S-180; conditions: in vivo, 2 h
Blood [52] = experiment: Biodistribution in S180 tumor-bearing mouse blood at 8 to 10 uCi, iv after 120 mins by gamma counting; type: ADME, organism-based; conditions: in vivo, 2 h
Nucleic Acid [53] = experiment: Ratio of drug level in tumor to muscle in S180 tumor-bearing mouse at 8 to 10 uCi, iv at 120 mins by gamma counting; type: ADME, organism-based; conditions: in vivo, 2 h
Nucleic Acid [54] = experiment: Ratio of drug level in tumor to blood in S180 tumor-bearing mouse at 8 to 10 uCi, iv at 120 mins by gamma counting; type: ADME, organism-based; conditions: tumour, 2 h
Nucleic Acid [55] = experiment: Ratio of drug level in tumor to brain in S180 tumor-bearing mouse at 8 to 10 uCi, iv at 120 mins by gamma counting; type: ADME, organism-based; conditions: in vivo, 2 h
Blood [56] = experiment: Clearance in S180 tumor-bearing mouse blood at 8 to 10 uCi, iv at 120 mins; type: ADME, organism-based; conditions: in vivo, 2 h

logP [1]: 0.89 | Stability (Plasma): Stable | Stability [2]: Stable | Stability [3]: Stable | Drug uptake (Heart [4]): 4.79 % ID/g | Drug uptake (Liver [5]): 9.67 % ID/g | Drug uptake (Spleen [6]): 2.84 % ID/g | Drug uptake (Lung [7]): 12.21 % ID/g | Drug uptake (Kidney [8]): 10.85 % ID/g | Drug uptake (Stomach [9]): 8.52 % ID/g | Drug uptake (Muscle tissue [10]): 1.87 % ID/g | Drug uptake (Brain [11]): 0.78 % ID/g | Drug uptake (Mus musculus [12]): 0.38 % ID/g | Drug uptake (Blood [13]): 4.43 % ID/g | Ratio (Nucleic Acid [14]): 0.2 | Ratio (Nucleic Acid [15]): 0.09 | Ratio (Nucleic Acid [16]): 0.49 | Drug uptake (Heart [17]): 1.12 % ID/g | Drug uptake (Liver [18]): 7.96 % ID/g | Drug uptake (Spleen [19]): 1.25 % ID/g | Drug uptake (Lung [20]): 5.12 % ID/g | Drug uptake (Kidney [21]): 2.83 % ID/g | Drug uptake (Stomach [22]): 7.03 % ID/g | Drug uptake (Muscle tissue [23]): 2.46 % ID/g | Drug uptake (Brain [24]): 0.39 % ID/g | Drug uptake (Mus musculus [25]): 4.04 % ID/g | Drug uptake (Blood [26]): 1.58 % ID/g | Ratio (Nucleic Acid [27]): 1.64 | Ratio (Nucleic Acid [28]): 2.56 | Ratio (Nucleic Acid [29]): 10.36 | Drug uptake (Heart [30]): 0.98 % ID/g | Drug uptake (Liver [31]): 1.87 % ID/g | Drug uptake (Spleen [32]): 0.8 % ID/g | Drug uptake (Lung [33]): 5.6 % ID/g | Drug uptake (Kidney [34]): 0.9 % ID/g | Drug uptake (Stomach [35]): 4.05 % ID/g | Drug uptake (Muscle tissue [36]): 0.43 % ID/g | Drug uptake (Brain [37]): 0.19 % ID/g | Drug uptake (Mus musculus [38]): 3.31 % ID/g | Drug uptake (Blood [39]): 1.11 % ID/g | Ratio (Nucleic Acid [40]): 7.7 | Ratio (Nucleic Acid [41]): 2.98 | Ratio (Nucleic Acid [42]): 17.42 | Drug uptake (Heart [43]): 1.87 % ID/g | Drug uptake (Liver [44]): 1.78 % ID/g | Drug uptake (Spleen [45]): 1.05 % ID/g | Drug uptake (Lung [46]): 3.6 % ID/g | Drug uptake (Kidney [47]): 1.07 % ID/g | Drug uptake (Stomach [48]): 4.1 % ID/g | Drug uptake (Muscle tissue [49]): 1.31 % ID/g | Drug uptake (Brain [50]): 0.09 % ID/g | Drug uptake (Mus musculus [51]): 3.7 % ID/g | Drug uptake (Blood [52]): 0.56 % ID/g | Ratio (Nucleic Acid [53]): 2.82 | Ratio (Nucleic Acid [54]): 6.61 | Ratio (Nucleic Acid [55]): 41.11 | CL (Blood [56]): 88%
SMILES: COc1cc2ncnc(Nc3cccc(Br)c3)c2cc1OCC[18F]
